Laboratory results taken from patent US20240024262A1, “USE OF VALERIC ACID IN PREPARATION OF DRUG FOR PREVENTING AND TREATING DIABETES” (Harbin Medical University, priority 2022, published 2024).

What was measured:
[1] = Serum tumor markers CEA and CA19-9 by ECLIA in high-fat fed mice; assay type: in vivo
Source text: Finally, to detect whether tumor invasion was caused during intervention or not, contents of a carbohydrate antigen (CA 19-9) and a carcinoembryonic antigen (CEA) in mouse serum were detected and compared by using automatic electrochemiluminescence immunoassay system Cobas® 8000 (Roche, USA) and electrochemiluminescence immunoassay (ECLIA).

[2] = test system: 3-phosphoinositide dependent protein kinase 1 (Pdpk1); assay: TMT proteomic detection of pancreatic tissues, HFD+VA vs HFD+PBS; assay type: in vivo, mice; conditions: TMT proteomics
Experimental: (§1) During the subsequent test, in order to observe pathological morphologies of animal tissues, paraffin sections of mouse tissues were made and subjected to HE staining, immunohistochemical staining and immunofluorescence staining. Also, mouse pancreatic tail tissues in a valeric acid intervention group and a control group were taken out from the −80° C. refrigerator and underwent TMT labeled quantitative proteome detection of the animal tissues, and differential proteins were subjected to a Western Blot test and a real-time fluorescence quantitative polymerase chain reaction (QRT PCR) test for the animal tissues to verify test results.
Through functional annotation of GO and KEGG databases, metabolic pathways such as energy and glycolipid metabolism, glycogen synthesis, redox and phosphorylation are enriched (FIG. 19).

[3] = test system: Leptin receptor gene deficient db/db mice; assay: Type 2 diabetes model db/db mice: food intake, body weight, blood glucose-related indexes; assay type: in vivo
Experimental: The following drugs are taken as comparative examples: • 1. Comparative example where an existing drug serves as a positive control • (1) High-fat fed C57BL6/J mice • Sodium butyrate gavage intervention group: 75.0 mg/kg • (2) Type 2 diabetes model db/db mice • Sodium butyrate gavage intervention group: 75.0 mg/kg • Harmine gavage intervention group: 10.0 mg/kg • Metformin gavage intervention group: 100.0 mg/kg • (3) Cell line of mouse insulinoma islet β cells (Beta-TC-6) • Sodium butyrate intervention group: 1.0 mmol/L • Harmine intervention group: 10.0 μmmol/L • (4) Mouse islet β primary cell • Sodium butyrate intervention group: 1.0 mmol/L • Harmine intervention group: 10.0 μmmol/L • 2. A control test is taken as a comparative example • (1) High-fat fed C57BL6/J mice • Ordinary feed feeding group, and high-fat feed PBS gavage group • (2) Type 2 diabetes model db/db mice • Control feeding group and PBS gavage group • (3) Cell line of mouse insulinoma islet β cells (Beta-TC-6) • Blank control group, and palmitic acid (PA) intervention negative control group • (4) Mouse islet β primary cell • Blank control group, and PA intervention negative control group • Results are as follows:
(II) In the animal test, the therapeutic effect of the valeric acid on diabetes is observed by using Leptin receptor gene deficient db/db mice (purchased from Nanjing Junke Biotechnology Co., Ltd.) as test subjects.

[4] = test system: PI3k/Pdpk1/Akt insulin metabolic pathway; assay: WB and ELISA of key proteins of PI3k/Pdpk1/Akt insulin metabolic pathway in mouse pancreatic tissues; assay type: in vivo, mice; conditions: p value <0.05
Experimental: as §1

[5] = test system: mouse pancreatic tissues (islet β cells); assay: Histopathology of pancreas of high-fat fed mice (HE, ERK immunohistochemistry, immunofluorescence); assay type: in vivo
Experimental: In order to detect a blood glucose homeostasis level and an insulin function of each mouse, an oral glucose tolerance test (OGTT) for the mice was performed. At the night before this test, test mice were fasted but not water for 16 h and transferred from a feeding room to a clean experimental operation room, so that the animals could adapt to the environment. Before the OGTT started, a weight of each mouse was accurately weighed, and an injection dose of glucose was calculated according to 2 mg/g body weight, and a tail was cut for collecting blood at 0 minute, 15 minutes, 30 minutes, 60 minutes and 120 minutes after intragastric injection of the glucose. A first drop of blood after tail cutting was discarded, and then concentrations of blood glucose (mmol/L) were continuously detected using an Accu-Chek blood glucose meter (Roche diagnosis, USA). The test mice were fasted for 12 h at the night before sampling, and were anesthetized by intraperitoneal injection of a 10% chloral hydrate-containing solution. After the intraperitoneal cavities of the mice were cut, blood was collected by apical blood collection, and the test mice were killed. After being collected, blood samples were left for still standing for 2 h at the room temperature, and then centrifuged for 15 min at […], serum at the upper layer was sucked, and then biochemical detection was performed immediately. After the blood samples were collected, pancreatic tissues of the mice were immediately cut off so as to prevent pancreatic dissolution, and heads and tails of pancreas were separately stored. Then other tissues of the mice were extracted. Pictures of tissue morphologies of various parts of the mice were photographed and stored, and weights of tissues were weighed and precisely recorded. Subsequently, the extracted tissues were divided into two parts, one of the two parts was sub-packed into an EP tube, immediately rapidly frozen in liquid nitrogen and then transferred to a −80° C. refrigerator for cryopreservation; and the other part was sub-packed into an EP tube containing 4% paraformaldehyde to be fixed for making pathological tissue sections later.
as §1

[6] = test system: cell proliferation and differentiation pathway; assay: WB and ELISA of classical proteins in a cell proliferation and differentiation pathway in mouse pancreatic tissues; assay type: in vivo, mice
Experimental: as §1

CCCCC(=O)O [valeric acid]
CA19-9 in mouse serum ([1]; HF+VA mouse serum): < 0.600 U/mL | CEA in mouse serum ([1]; HF+VA mouse serum): < 0.200 U/mL | cancer invasion ([1]; from CEA and CA19-9 serum markers): does not occur | expression level of Pdpk1 in the mouse pancreatic tissues [2]: significantly increased | area under the OGTT curve ([3]; compared with metformin and Harmine groups): smallest | decrease of fasting blood glucose ([3]; compared with the PBS control group): ~10 mmol/L | insulin secretion ([3]; comparison among groups / vs PBS control group): best | weights ([3]; vs PBS control group): decreased significantly | expression level of Akt [4]: significantly increased | expression level of PIPS [4]: significantly increased | expression level of Pdpk1 [4]: significantly increased | expression level of mTOR [4]: significantly increased | expression level of p-Akt [4]: significantly increased | expression level of p-mTOR [4]: significantly increased | proportion of ERK positive areas ([5]; ERK staining of paraffin sections): increased significantly | islet areas ([5]; HE staining, HF-V group): obviously enlarged | number of islets ([5]; HE staining, HF-V group): increased | number of β cells in the islet ([5]; HE staining, HF-V group): significantly increased | number of Ki67 stained nuclei in the pancreas ([5]; insulin/Ki67/DAPI immunofluorescence): increased significantly | secretion proportion of the insulin in the pancreas ([5]; insulin/glucagon/DAPI immunofluorescence): increased significantly | expression level of ERK1/2 [6]: significantly increased | expression level of FoxO1A [6]: significantly increased | expression level of MafA [6]: significantly increased | expression level of Nkx6.1 [6]: significantly increased | expression level of PDX1 [6]: significantly increased | expression level of p-ERK1/2 [6]: significantly increased
